System: Melanoderm cultures (melanogenesis)
Assay: Melanoderm human skin equivalent lightening test (Hunter Lab L value)
Type: cell-based
Settings: for Average L Value / L Value Range: 3 micromolar in media, dosed 10 times in 3 weeks, Hunter Lab L value, Minolta CR-10 chromameter; for Average L Value: averaged; for L Value Range: triplicate; for ΔL: difference in average Hunter Lab L value, treated vs untreated control cultures, 3 micromolar, 3 weeks
Description: As used herein, ΔL is defined to mean the difference in Hunter Lab L values when comparing three, three (3) week old Mattek Melanoderm cultures that have not been treated with a composition comprising an agonist of A2A receptors to three, three (3) week old Mattek melanoderm cultures that have been treated with a composition comprising an agonist of A2A receptors wherein treated means: • (a) placing the melanoderm culture within a six (6) well tissue culture dish and set about 0.3 cm off of the tissue culture dish; • (b) subjecting the melanoderm culture to a 3 micromolar composition having an agonist of A2A adenosine receptors, the composition being one prepared from a 10 millimolar solution of A2A agonist and carrier (e.g., dimethyl sulfoxide) having been diluted with Dulbecco's Modified Eagle Media; and • (c) comparing the treated and untreated cultures by obtaining average L values for each with a Minolta CR-10 chromameter.
Commercially available human skin equivalents (Melanoderm from Mattek) were obtained for testing the impact of agonists of A2A adenosine receptors on melanogenesis. Solutions having a final concentration of three (3) micromolar were prepared from a 10 millimolar dimethyl sulfoxide stock solution and dosed ten (10) times in a three (3) week period into the media of the melanoderm cultures. The media consisted of commercially available basal Dulbecco's Modified Eagles media, prepared and treated in the manner set forth in the manufacture's instructions. For long term maintenance of the Melanoderms, the basal media was supplemented with bFGF and alpha MSH to stimulate melanocyte growth and melanogenesis. Each treatment condition was done in triplicate and three (3) sets were made for each treatment, as well as for a control (culture not treated with the agonist). The cultures were maintained at a temperature of about 37° C. and stored in a humidified, 5% CO2 incubator during the dosing period, but removed while being dosed.
After a three (3) week period, Hunter lab L value readings were taken for each condition (with a.Minolta CR-10 chromameter) and then averaged.

| Compound | Average L Value | L Value Range | ΔL |
| --- | --- | --- | --- |
| CCNC(=O)[C@H]1O[C@@H](n2cnc3c(N)nc(NCCc4ccc(CCC(=O)O)cc4)nc32)[C@H](O)[C@@H]1O [Agonist 1, 2-para(2-carboxyethyl)phenethylamino-5′-N-ethyl carboxamido adenosine] | 31.9 | 30.3-33.3 | 1.7 |
| Nc1nc(Nc2ccccc2)nc2c1ncn2[C@@H]1O[C@H](CO)[C@@H](O)[C@H]1O [Agonist 2, phenylaminoadenosine] | 43.8 | 43.2-44.2 | 5.2 |
